Values joined by “and” are separate entries in the source; they are usually repeats but may differ in a detail not shown here. Equal entries are not always repeated.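 These data come from cells grown in 96-well plates and exposed to compound for 48 hours at five concentrations. GI50 = concentration required for 50% inhibition of growth. At the TGI there is no net growth.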
What was measured:
Assay in all cases: DTP human tumour cell line panel, 48 h
EKVX NSCLC = system: EKVX NSCLC
HCT-116 colon = system: HCT-116 colon
HL-60(TB) leukemia = system: HL-60(TB) leukemia
HOP-62 NSCLC = system: HOP-62 NSCLC
KM12 colon = system: KM12 colon
NCI-H460 lung = system: NCI-H460 lung
NCI-H522 lung = system: NCI-H522 lung
SK-MEL-5 melanoma = system: SK-MEL-5 melanoma
SK-OV-3 ovarian = system: SK-OV-3 ovarian
SN12C renal = system: SN12C renal

Row | Compound | GI50 (EKVX NSCLC) [µM] | TGI (EKVX NSCLC) [µM] | GI50 (HCT-116 colon) [µM] | TGI (HCT-116 colon) [µM] | GI50 (HL-60(TB) leukemia) | TGI (HL-60(TB) leukemia) [µM] | GI50 (HOP-62 NSCLC) [µM] | TGI (HOP-62 NSCLC) | GI50 (KM12 colon) [µM] | TGI (KM12 colon) [µM] | GI50 (NCI-H460 lung) [µM] | TGI (NCI-H460 lung) [µM] | GI50 (NCI-H522 lung) [µM] | TGI (NCI-H522 lung) [µM] | GI50 (SK-MEL-5 melanoma) [µM] | TGI (SK-MEL-5 melanoma) [µM] | GI50 (SK-OV-3 ovarian) [µM] | TGI (SK-OV-3 ovarian) [µM] | GI50 (SN12C renal) [µM] | TGI (SN12C renal) [µM]
1 | CCOC(=O)/C(C=Nc1ccc(-c2nc3ccccc3[nH]2)cc1)=C(/C)O | 11.9 | 38.9 | 7.82 | 14.5 | 18.5 µM | 44 | 19.7 | > 50 µM | 7.8 | 24 | 12.1 | > 50 | 10.7 | 26.4 | 7.71 | 15.5 | 22.2 | > 50 | 14.5 | > 50
2 | CCOC(=O)Nc1ccc2c(c1)/C(=N\NC(N)=S)c1ccccc1-2 | 4.29 | 41.2 | 4.32 | 50 | 4.24 µM | 16.1 | 4.9 | 22.6 µM | 3.29 | 13.6 | 4.33 | 23.1 | 3.84 | 12.7 | 2.44 | 7.59 | 11.7 | 44.8 | 5.94 | 65.7
3 | CN(O)C(=O)SCC(NC(=O)CCC(N)C(=O)O)C(=O)NCC(=O)O (stereo not given) | > 2000 | > 2000 | > 2000 | > 2000 | > 2 µM and 1200 µM | > 2000 | > 2000 | > 2 µM and 313 µM and > 2000 µM | > 2 | > 2000 | > 2 | > 2000 | > 2000 | > 2000 | > 2000 | > 2000 | > 2000 | > 2000 | > 2000 | > 2000
4 | O=C(NCCCCNc1cccccc1=O)OCc1ccccc1 |  | > 100 |  | > 100 |  | > 100 |  | > 100 µM |  | > 100 |  | > 100 |  | > 100 |  | > 100 |  | > 100 |  | > 100
5 | COc1cc(C(O)CCBr)c(OC)cc1C (stereo not given) |  | > 100 |  | > 100 |  | > 100 |  | > 93.5 µM |  | > 86.7 |  | > 100 |  | > 66.3 |  | > 38 |  | > 73.6 |  | > 100
6 | O=c1[nH]c(=O)c2cn[nH]c2[nH]1 | > 100 | > 100 | > 100 | > 100 | > 100 µM | > 100 | > 100 | > 100 µM | > 100 | > 100 | > 100 | > 100 | > 100 | > 100 | > 100 | > 100 | > 100 | > 100 | > 100 | > 100
7 | C=CCN=c1sc2c(n1NC(=O)c1cc3ccc1CCc1ccc(cc1)CC3)C(=O)c1ccccc1C2=O | 1.39 | 3.46 | 0.577 | 2.58 | 0.395 µM | 3.26 | 1.96 | 4.85 µM | 2.68 | 8.8 | 1.94 | 3.97 | 1.49 | 4.19 | 1.41 | 2.75 | 3.7 | 23.4 | 1.22 | 2.79
8 | COc1cc(/C=C\c2cc(OC)c(OC)c(OC)c2)cc(NC(=O)/C=C/c2cc(OC)c(OC)c(OC)c2)c1OC | 15.7 | > 100 | 4.57 | > 100 | 0.509 µM | 4.46 | 7.21 | > 100 µM | 3.42 | > 100 | 5.39 | > 100 | 2.73 | > 100 | 1.66 | 3.97 | 6.62 | > 100 | 27.6 | > 100
9 | N#CC1(C#N)C2(c3ccccc3)OC(c3ccccc3)(c3cc4ccccc4cc32)C1(C#N)C#N |  | 32.1 |  | 20 |  | 7.05 |  | 36.4 µM |  | 23.7 |  | 41.7 |  | 8.43 |  | 27.8 |  | 37.4 |  | 36.2
10 | CCCCON(OC(=O)c1ccc2ccccc2c1)C(=O)c1ccccc1 | > 100 | > 100 | 34.8 | > 100 | 91 µM | > 100 | > 100 | > 100 µM | > 100 | > 100 | > 100 | > 100 | 63 | > 100 | > 100 | > 100 | > 100 | > 100 | > 100 | > 100

Reference: PubChem BioAssay (NCI)
